# Assay results: patent US12606572B2, “Substituted heterocycles and uses thereof” (Kumquat Biosciences Inc., priority 2023, dated 2026)
# Molecular target: T1, KRAS G12S (Homo sapiens, UniProt P01116, G12S)
# T1 construct: made in house; host or cells: E. coli BL21 (DE3)
# Experiment: HTRF assay, interaction of GST-tagged K-Ras with His-tagged hSOS1 (KRAS G12S)
# Format: biochemical
# Conditions: <500 nM, read-out: Inhibition of KRAS G12S (IC50)
# Description: This assay can be also used to assess a selective inhibition or reduction of signaling output of a mutant Ras protein relative to a wildtype, or relative to a different mutant Ras protein. For example, the equilibrium interaction of wildtype KRAS or K-Ras mutant (e.g., wildtype or a mutant thereof) with SOS1 (e.g., hSOS1) can be assessed as a proxy or an indication for the ability of a subject compound to bind and inhibit Ras protein. The HTRF assay detects from (i) a fluorescence resonance energy transfer (FRET) donor (e.g., antiGST-Europium) that is bound to GST-tagged K-Ras mutant to (ii) a FRET acceptor (e.g., anti-6His-XL665) bound to a His-tagged hSOS1.
# The assay buffer can contain ˜5 mM HEPES pH 7.4, ˜150 mM NaCl, ˜1 mM DTT, 0.05% BSA and 0.0025% (v/v) Igepal. A Ras working solution is prepared in an assay buffer containing typically a suitable amount of the protein construct (e.g., GST-tagged K-Ras mutant) and the FRET donor (e.g., antiGST-Eu(K) from Cisbio, France). A SOS1 working solution is prepared in an assay buffer containing suitable amount of the protein construct (e.g., His-hSOS1) and the FRET acceptor (e.g., anti-6His-XL665 from Cisbio, France). A suitable amount of the protein construct will depend on the range of activity or range of IC50 values being detected or under investigation. For detecting an IC50 within a range of 500 nM, the protein constructs of the same range of molarity can be utilized.
# A fixed volume of DMSO with or without test compound is transferred into a 384-well plate. Ras working solution is added to all wells of the test plate. SOS1 working solution is added to all wells except for those that are subsequently filled with inhibitor control solution. Upon incubation for about 10 minutes or longer, the fluorescence is measured with a M1000Pro plate reader (Tecan) using HTRF detection (excitation 337 nm, emission 1: 620 nm, emission 2: 665 nm). Compounds are tested in duplicate at different concentrations (for example, 10 μM, 2.5 μM, 0.63 μM, 0.16 μM, 0.04 μM, 0.01 μM test compound). The ratiometric data (i.e., emission 2 divided by emission 1) is used to calculate IC50 values against Ras using GraphPad Prism (GraphPad software). Signaling output measured in terms of IC50 values can be obtained and a ratio of IC50 against one mutant relative to another mutant can be calculated. For instance, a selective reduction of K-Ras G12S signaling output can be evidenced by a ratio greater than one. In particular, a selective reduction of K-Ras G12S signaling relative to K-Ras WT signaling is evidenced if the ratio of IC50 (against K-Ras WT) to IC50 (against K-Ras G12S) is greater than 1.
# T1 sequence (P01116 1-188 isoform P01116-2 G12S): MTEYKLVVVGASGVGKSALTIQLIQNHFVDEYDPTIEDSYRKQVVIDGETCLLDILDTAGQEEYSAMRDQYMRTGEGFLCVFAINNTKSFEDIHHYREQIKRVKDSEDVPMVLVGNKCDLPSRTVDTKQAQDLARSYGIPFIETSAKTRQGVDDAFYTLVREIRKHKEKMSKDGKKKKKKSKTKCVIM
row,Compound,IC50 [nM]
1,"C[C@H]1COc2c(Cl)c(-c3ccc(F)c4sc(N)c(C#N)c34)c(F)c3nc(OC[C@@]45CCCN4C[C@H](F)C5)nc(c23)N1C[C@@H]1CN(C(=O)n2ccnc2)[C@@H]1C1(C)CC1 (single isomer, unassigned) [Compound 421]",< 500
2,"CN1[C@H](C2CC2)[C@@H]1C(=O)N1CC(CN2CCOc3c(Cl)c(-c4ccc(F)c5sc(N)c(C#N)c45)c(F)c4nc(OC[C@@]56CCCN5C[C@H](F)C6)nc2c34)C1 (stereo partly drawn) [Compound 440, 2-amino-4-(8-chloro-4-((1-((2R,3R)-3-cyclopropyl-1-methylaziridine-2-carbonyl)azetidin-3-yl)methyl)-10-fluoro-2-(((2R,7aS)-2-fluorotetrahydro-1H-pyrrolizin-7a (5H)-yl)methoxy)-5,6-dihydro-4H-[1,4]oxazepino[5,6,7-de]quinazolin-9-yl)-7-fluorobenzo[b]thiophene-3-carbonitrile]",< 500
3,"C[C@H](O)[C@H]1COc2c(Cl)c(-c3ccc(F)c4sc(N)c(C#N)c34)c(F)c3nc(OC[C@@]45CCCN4C[C@H](F)C5)nc(c23)N1C1CC(CN(C)C(=O)n2ccnc2)C1 (stereo partly drawn) [Compound 401, N-((3-((5R)-9-(2-amino-3-cyano-7-fluorobenzo[b]thiophen-4-yl)-8-chloro-10-fluoro-2-(((2R,7aS)-2-fluorotetrahydro-1H-pyrrolizin-7a(5H)-yl)methoxy)-5-((S)-1-hydroxyethyl)-5,6-dihydro-4H-[1,4]oxazepino[5,6,7-de]quinazolin-4-yl)cyclobutyl)methyl)-N-methyl-1H-imidazole-1-carboxamide]",< 500
4,"N#Cc1cn(C(=O)N2CC(CN3CCOc4c(Cl)c(-c5ccc(F)c6sc(N)c(C#N)c56)c(F)c5nc(OC[C@@]67CCCN6C[C@H](F)C7)nc3c45)C2)cn1 [Compound 436, 1-(3-((9-(2-amino-3-cyano-7-fluorobenzo[b]thiophen-4-yl)-8-chloro-10-fluoro-2-(((2R,7aS)-2-fluorotetrahydro-1H-pyrrolizin-7a(5H)-yl)methoxy)-5,6-dihydro-4H-[1,4]oxazepino [5,6,7-de]quinazolin-4-yl)methyl)azetidine-1-carbonyl)-1H-imidazole-4-carbonitrile]",< 500

# More lines, now with the values ahead:
row,IC50 [nM],Compound
1,< 500,"CC1([C@@H]2[C@H](CN3CCOc4c(Cl)c(-c5ccc(F)c6sc(N)c(C#N)c56)c(F)c5nc(OC[C@@]67CCCN6C[C@H](F)C7)nc3c45)CN2C(=O)n2ccnc2)CC1 [Compound 486, 4-(4-(((2S,3R)-1-(1H-imidazole-1-carbonyl)-2-(1-methylcyclopropyl)azetidin-3-yl)methyl)-8-chloro-10-fluoro-2-(((2R,7aS)-2-fluorotetrahydro-1H-pyrrolizin-7a(5H)-yl)methoxy)-5,6-dihydro-4H-[1,4]oxazepino [5,6,7-de]quinazolin-9-yl)-2-amino-7-fluorobenzo[b] thiophene-3-carbonitrile]"
2,< 500,"CC(CN(C)C(=O)n1ccnc1)N1c2nc(OC[C@@]34CCCN3C[C@H](F)C4)nc3c(F)c(-c4ccc(F)c5sc(N)c(C#N)c45)c(Cl)c(c23)OC[C@@H]1[C@H](C)O (stereo partly drawn) [Compound 451, N-(2-((5R)-9-(2-amino-3-cyano-7-fluorobenzo[b]thiophen-4-yl)-8-chloro-10-fluoro-2-(((2R,7aS)-2-fluorotetrahydro-1H-pyrrolizin-7a(5H)-yl)methoxy)-5-((S)-1-hydroxyethyl)-5,6-dihydro-4H-[1,4]oxazepino [5,6,7-de]quinazolin-4-yl)propyl)-N-methyl-1H-imidazole-1-carboxamide]"
